According to patent US11751573B2, “Seaweed composition” (priority 2017, dated 2023):

Tests used:
tobacco callus = tobacco callus bioassay, cited from earlier work; for MINIMUM CONCENTRATION / OPTIMUM CONCENTRATION: Matsubara 1990, Letham et al. 1983; for minimum concentrations required for activity compared to tZ and BA: fold worse
Phaseolus lunatus callus = settings: cited from earlier work; for MINIMUM CONCENTRATION / OPTIMUM CONCENTRATION: P. lunatus callus bioassay, Matsbuara 1990; for EC50: Phaseolus lunatus callus, Mok et al. 2005, read-out: concentration at which one half of the maximal growth is achieved
[1] = system: Phaseolus vulgaris callus; settings: Phaseolus vulgaris callus assay; Matsbuara 1990; cited from earlier work
Pea test = settings: used to make it equivalent to IAA; Pilet 1971; cited from earlier work
[2] = system: Tobacco callus/P. lunatus callus; experiment: trans-Zeatin equivalents based on Tobacco callus/P. lunatus callus bioassay; assay type: cell-based; settings: for nM in tZ EQUIVALENTS IN KELPAK / nM in tZ E[…] KELPAK: contribution of the cytokinin in Kelpak
From the text: It can be seen from Table 4 that there is significant variation in activity between the cytokinins. The minimum concentration required for an effect and the optimum concentration in the tobacco callus assay are much better for iP and tZ than the other cytokinins, with BA still quite good.
The activity of pT in this assay has not been reported.
Nevertheless, the response of plant growth to different cytokinins can vary depending on the specific circumstances.

[3] = contribution of the cytokinin in Composition 2
[4] = contribution of the cytokinin in Composition 1

C/C(=C\CNc1ncnc2c1ncn2[C@@H]1O[C@H](CO)[C@@H](O)[C@H]1O)CO (relative stereo) [trans-zeatin riboside (tZR), trans-zeatin riboside]
MINIMUM CONCENTRATION (tobacco callus): 0.003 µM
OPTIMUM CONCENTRATION (tobacco callus): 0.3 µM
MINIMUM CONCENTRATION (Phaseolus lunatus callus): 0.003 µM
OPTIMUM CONCENTRATION (Phaseolus lunatus callus): 0.1 µM
MINIMUM CONCENTRATION [1]: 0.03 µM
OPTIMUM CONCENTRATION [1]: 3 µM

CC(CCNc1ncnc2nc[nH]c12)CO[C@@H]1O[C@H](CO)[C@@H](O)[C@H](O)[C@H]1O (stereo partly drawn) [Dihydrozeatin-O-glucoside (DHZOG), Dihydrozeatin-O-glucoside]
MINIMUM CONCENTRATION (tobacco callus): 0.001 µM

COC(=O)C(=O)c1c[nH]c2ccccc12 [IGAMe, indole-3-glyoxylic acid methyl ester]
activity relative to IAA (Pea test): 1/28

c1ccc(CNc2ncnc3nc[nH]c23)cc1 [N6-benzyladenine (BA), N6-benzyladenine]
nM in tZ EQUIVALENTS IN 90° C. EXTRACT (COMPOSITION 2) [2, 3]: 0.0002 nM
nM in tZ EQUIVALENTS IN KELPAK [2]: 0.01 nM
MINIMUM CONCENTRATION (tobacco callus): 0.0008 µM
OPTIMUM CONCENTRATION (tobacco callus): 0.07 µM
MINIMUM CONCENTRATION (Phaseolus lunatus callus): 0.01 µM
OPTIMUM CONCENTRATION (Phaseolus lunatus callus): 3 µM
EC50 (Phaseolus lunatus callus): ~40 nM
MINIMUM CONCENTRATION [1]: 0.001 µM

OC[C@H]1O[C@@H](n2cnc3c(NCc4ccccc4)ncnc32)[C@H](O)[C@@H]1O [N6-benzyladenosine (BAR), N6-benzyladenosine]
nM in tZ EQUIVALENTS IN KELPAK [2]: 0.0001 nM
MINIMUM CONCENTRATION (tobacco callus): 0.02 µM
OPTIMUM CONCENTRATION (tobacco callus): 1 µM

C/C(=C/CNc1ncnc2nc[nH]c12)CO [cis-zeatin (cZ), cis-zeatin]
nM in tZ E[…] ROOM T[…] (COMPOSITION 1) [2, 4]: 0.03 nM
nM in tZ E[…] 90° C. EXTRACT (COMPOSITION 2) [2, 3]: 0.03 nM
nM in tZ E[…] KELPAK [2]: 0.00008 nM
MINIMUM CONCENTRATION (tobacco callus): 0.03 µM
OPTIMUM CONCENTRATION (tobacco callus): 0.5 µM
MINIMUM CONCENTRATION (Phaseolus lunatus callus): 0.03 µM
OPTIMUM CONCENTRATION (Phaseolus lunatus callus): 3 µM
EC50 (Phaseolus lunatus callus): ~300 nM
MINIMUM CONCENTRATION [1]: 0.01 µM
OPTIMUM CONCENTRATION [1]: 3 µM

CC(CO)CCNc1ncnc2nc[nH]c12 (stereo not drawn) [dihydrozeatin (DHZ), dihydrozeatin]
MINIMUM CONCENTRATION (tobacco callus): 0.01 µM
OPTIMUM CONCENTRATION (tobacco callus): 0.4 µM

CC(CO)CCNc1ncnc2c1ncn2[C@@H]1O[C@H](CO)[C@@H](O)[C@H]1O (stereo partly drawn) [dihydrozeatin riboside (DHZR), dihydrozeatin riboside]
nM in tZ EQUIVALENTS IN KELPAK [2]: 0.00001 nM
MINIMUM CONCENTRATION (tobacco callus): 0.01 µM
OPTIMUM CONCENTRATION (tobacco callus): 4 µM

CC(CCNc1ncnc2c1ncn2C1OC(CO)C(O)C1O)COC1OC(CO)C(O)C(O)C1O (stereo not drawn) [dihydrozeatin riboside-O-glucoside]
nM in tZ EQUIVALENTS IN KELPAK [2]: 0.00003 nM
MINIMUM CONCENTRATION (tobacco callus): 0.002 µM

c1coc(CNc2ncnc3[nH]cnc23)c1 [kinetin (K), kinetin]
MINIMUM CONCENTRATION (tobacco callus): 0.001 µM
OPTIMUM CONCENTRATION (tobacco callus): 0.1 µM

Oc1cccc(CNc2ncnc3nc[nH]c23)c1 [mT, meta-topolin]
optimum concentration compared to tZ (tobacco callus; Holub et al. 1998): similar
minimum concentrations required for activity compared to tZ and BA (tobacco callus; Holub et al. 1998): similar
EC50 (Phaseolus lunatus callus): ~50 nM

OC[C@H]1O[C@@H](n2cnc3c(NCc4ccccc4O)ncnc32)[C@H](O)[C@@H]1O [oTR, ortho-topolin riboside]
minimum concentrations required for activity compared to tZ and BA (tobacco callus; Holub et al. 1998): 100 fold

Oc1ccccc1CNc1ncnc2nc[nH]c12 [ortho-topolin (oT), ortho-topolin]
nM in tZ EQUIVALENTS IN KELPAK [2]: 0.002 nM
minimum concentrations required for activity compared to tZ and BA (tobacco callus; Holub et al. 1998): 100 fold
EC50 (Phaseolus lunatus callus): ~1000 nM

Oc1ccc(CNc2ncnc3nc[nH]c23)cc1 [para-topolin (pT), para-topolin]
nM in tZ EQUIVALENTS IN ROOM TEMPERATURE EXTRACT (COMPOSITION 1) [2, 4]: 0.0001 nM
nM in tZ EQUIVALENTS IN 90° C. EXTRACT (COMPOSITION 2) [2, 3]: 0.09 nM
EC50 (Phaseolus lunatus callus): ~30000 nM

C/C(=C\CNc1ncnc2nc[nH]c12)CO [trans-zeatin (tZ), trans-zeatin]
nM in tZ E[…] KELPAK [2]: 0.29 nM
MINIMUM CONCENTRATION (tobacco callus): 0.0001 µM
OPTIMUM CONCENTRATION (tobacco callus): 0.004 to 0.05 µM
MINIMUM CONCENTRATION (Phaseolus lunatus callus): 0.001 µM
OPTIMUM CONCENTRATION (Phaseolus lunatus callus): 0.3 µM
EC50 (Phaseolus lunatus callus): ~20 nM
MINIMUM CONCENTRATION [1]: 0.0301 µM
OPTIMUM CONCENTRATION [1]: 3 µM

cis-zeatin riboside [cis-zeatin riboside (cZR)]
MINIMUM CONCENTRATION (tobacco callus): 0.03 µM
OPTIMUM CONCENTRATION (tobacco callus): 0.3 µM

trans-zeatin riboside-O-glucoside
nM in tZ E[…] KELPAK [2]: 0.0005 nM
MINIMUM CONCENTRATION (tobacco callus): 0.003 µM

trans-zeatin-9-glucoside [trans-zeatin-9-glucoside (tZ9G)]
MINIMUM CONCENTRATION (tobacco callus): >50 µM

trans-zeatin-O-glucoside [trans-zeatin-O-glucoside (tZOG)]
nM in tZ E[…] KELPAK [2]: 3.6 nM
MINIMUM CONCENTRATION (tobacco callus): 0.001 µM
